The text below walks through data of PubChem BioAssay (NCI).

The structures appear in SMILES notation.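 Cultured in 96-well plates, cells were exposed to test compound for 48 hours across five concentrations. Here, GI50 denotes the concentration required for 50% inhibition of growth. TGI: concentration producing complete growth inhibition.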

Holding throughout (test): NCI tumour cell line growth inhibition, 48 h
The test system of assay [1] is CAKI-1 renal.
Assay [2] concerns COLO 205 colon.
Assay [3] has as its system HCT-116 colon.
For assay [4], the system named is HCT-15 colon.
Assay [5] relates to OVCAR-3 ovarian.
Assay [6] has as its system SF-268 CNS.
The subject of assay [7] is SK-MEL-2 melanoma.
In assay [8] the test system is SK-MEL-5 melanoma.
For assay [9], the system named is UACC-62 melanoma.
For assay [10], the system named is K-562 leukemia.

For `COC(C/C=C\C=C\CC/C=C/CC(C)/C=C/C(=C\C(=O)O)CC(=O)O)/C(C)=C\C=C(/C)C(=O)O` (configuration not stated), the TGI in assay [1], in [2], in assay [3], in assay [4], in assay [5] and in assay [6] was above 100 µM each time. The TGI in [7], in [8] and in assay [9] was above 100 µM in each case.
On to `CCOC(=O)/C(C1=N[C@H](C(=O)OCC)CS1)=C(\O)c1ccccc1`, for which the TGI in assay [1], in assay [2], in assay [3], in assay [4], in assay [10] and in assay [5] was above 100 µM in each case. The TGI in [6], in [7], in [8] and in [9] was above 100 µM in each case.
With `NNc1nnc(-c2ccccc2)nc1Cc1ccccc1`, the TGI in [1], in assay [2], in assay [3], in [4], in [10] and in [5] was above 100 µM in each case. For the same compound, the TGI in assay [6] is above 100 µM; in [7] it was above 100 µM; in [8] it was above 100 µM; in assay [9], 16.1 µM.
For the compound `Cn1cnc(/C=C/C#N)c1`, the TGI in assay [1], in assay [2], in [4], in assay [10], in assay [5] and in assay [6] was above 100 µM in each case. Moreover, the TGI in assay [7], in assay [8] and in assay [9] was above 100 µM in each case.
As for `COc1ccc(-c2cc(-c3ccc(OC)c(OC)c3)nc(SCCCC(=O)NO)n2)cc1`, the GI50 in assay [1] was 431 nM; in assay [2] it was 1750 nM; in assay [3], 960 nM; in [4], 553 nM; in assay [10] it was 1110 nM; in assay [5], 1690 nM. The GI50 in assay [6] is 1970 nM; in [7], 2140 nM; in [8], 1820 nM; in assay [9] it was 1140 nM. Moreover, the TGI was 2.37 µM in [1]; 5.98 µM in assay [2]; 13.7 µM in assay [3]; 3.59 µM in assay [4]; above 100 µM in assay [10]; 5.46 µM in [5]. Further, the TGI in [6] turned out to be 5.45 µM; in assay [7], 5.85 µM; in assay [8], 3.68 µM; in [9], 2.68 µM.
`Cc1cc(=O)[nH]c(NN2C(Cl)C(=O)C2c2ccco2)n1` (configuration not stated): the TGI in assay [2] was above 100 µM; in assay [3] it was above 100 µM; in assay [4], above 100 µM; in [10] it was above 100 µM; in [5], 79.4 µM; in [6] it was above 100 µM. The TGI in [7] is 99.7 µM; in [8], above 100 µM; in assay [9] it was 63.6 µM.
Consider `CCOC(=O)NC(OCc1ccccc1)(C(=O)OC)C(F)(F)F` (configuration not stated), for which the TGI in assay [1] was 87.1 µM; in [2], above 100 µM; in assay [3] it was above 100 µM; in [4], above 100 µM; in [10], above 100 µM; in [5], above 100 µM. Besides, the TGI in assay [6], in assay [7], in assay [8] and in assay [9] was above 100 µM each time.
